Where two headings read alike, the source gives them in different places.
Columns and labels:
[1] = target: T1, hERG (Homo sapiens, UniProt Q12809); assay: hERG flux (Tl+ flux, FLIPR) in HEK293 cells; format: cell-based; parameters: expressed in transfected cells; host or cells: HEK293
Procedure: HEK293 cells stably-expressing hERG channels were grown (37° C., 5% CO2) in Dulbecco's Modified Eagle's Media supplemented with 10% Sigma fetal bovine serum, non-essential amino acids, 2 mM L-glutamine and 500 μg/ml G418, at incubator.
A 2 mM stock of BTC-AM dye (Molecular Probes, Eugene, Oreg.) was prepared in 100% DMSO and then added 1:1 to 10% (w/v) pluronic acid in DMSO on the day of assay. The dye was then diluted in hERG external EP buffer (140 mM NaCl, 4.0 mM KCl, 1.8 mM CaCl2, 1.0 mM MgCl2, 10 mM HEPES, pH 7.3 and 10 mM glucose; all buffer components obtained from Sigma Chemical). This BTC dye mixture (30 μl) was added to the cells and produced a final loading concentration of 2.5 μM. Cells are incubated at 21° C. for 45 minutes.
Test compounds were diluted to 10 mM DMSO in 60 μl. […] Assay-ready plates were generated by stamping 2.5 μl from the DMSO serially diluted plate, which was prepared on the Velocity 11 BioCel. Aqueous plates were created by adding 48 μl of EP buffer and then were diluted 30-45 minutes before the assay was read on the FLIPR. […] Assay-ready aqueous plates were prepared and diluted on a Cybio liquid handler.
Cells loaded with dye were read on the FLIPR384 (Molecular Devices, Sunnyvale, Calif.), which excites the dye using the 488 nm line of an argon laser. […]
The dynamic range of the assay was determined from blanks and totals wells. […]

[2] = target: T1, hERG; assay: hERG patch clamp, HEK-293 cells; details: pH 7.4
[3] = Parallel Artificial Membrane Permeability Assay (PAMPA); details: mean ± SD (n in parentheses)
Source text: The Parallel Artificial Membrane Permeability Assay (PAMPA) consists of a specially formulated lecithin-based lipid combination referred to as the gastrointestinal tract (GIT) lipid. The GIT lipid is used to form a membrane in a sandwich plate assembly similar to that used in the Caco-2 assays. […] The rate of passage of compounds through the PAMPA membrane is used to determine a permeability coefficient (Pc), which can be related to the in vivo passive permeability of the compound.
The permeability coefficient (Pc) of a particular compound is examined in a pH-dependent setting with apical and basolateral pH of 7.4. All experiments are conducted in triplicate determinations.
The PAMPA assay plate (donor side and acceptor side) was combined and allowed to incubate at room temperature for 4 hours. […] The donor, acceptor, reference, and blank plates were read in the SpectraMax UV plate reader. Data was captured by the pION software, which analyzes the spectra and generates Pc values.

[4] = system: monkey PBMC's; assay: In vitro chemotaxis assay with monkey PBMC's; format: cell-based, Cynomolgus monkey; details: Primates, highly variable
Source text: The first employs monkey PBMC's while the second uses L1.2 cells stably transfected with Cyno CCR2.

[5] = Single-dose pharmacokinetics in rats; details: rat
Procedure: Male Sprague-Dawley rats (250-300 g) were used for the pharmacokinetic studies. Rats were fasted overnight prior to PO dosing and fed 4 h post dose. Blood samples (˜0.3 mL) were collected from the jugular vein into K2EDTA-containing tubes and then centrifuged at 4° C. (1500-2000×g) to obtain plasma. […] Serial blood samples were obtained at 0.17 (for IV only), 0.25, 0.5, 0.75, 1, 2, 4, 6, 8, and 24 h post dose. Plasma samples, obtained by centrifugation at 4° C. (1500-2000×g), were stored at −20° C. until analysis by LC/MS/MS.
(§4) The pharmacokinetic parameters were obtained by non-compartmental analysis of plasma concentration vs. time data ([…] ™ software, Version 4.2, InnaPhase Corporation, Philadelphia, Pa.). The peak concentration (Cmax) and time for Cmax were recorded directly from experimental observations. The area under the curve from time zero to the last sampling time (AUC(0-T)) was calculated using a combination of linear and log trapezoidal summations. The total plasma clearance (CLTp), steady-state volume of distribution (Vss), apparent elimination half-life (T½) and mean residence time (MRT) were estimated after IV administration. […] The absolute oral bioavailability (F) was estimated as the ratio of dose-normalized AUC values following oral and IV doses.

[6] = target: human cardiac sodium channel SCN5A (Homo sapiens, UniProt Q14524); assay: Sodium channel patch clamp, HEK-293 cells; format: cell-based; details: read-out: Na+ channel patch clamp (% Inhib.)
Procedure: The compound was tested at a protein-free aqueous buffer. For determining steady state inhibition, sodium currents were elicited every 5 seconds using the following voltage protocol: cells were held at a potential of −90 mV and stepped to −20 mV for 60 ms. Effects were calculated by measuring inhibition of peak current during the test pulse to −20 mV. Rate-dependence of inhibition was assessed by stimulation at frequencies of 1 Hz and 4 Hz.

[7] = Single-dose pharmacokinetics in monkeys; details: male, Cynomolgus, cynomolgus monkey
Procedure: The pharmacokinetics of various test compounds were evaluated in male Cynomolgus monkeys in a crossover-design. Monkeys were fasted overnight prior to PO dosing and fed 4 h post dose. […] Serial blood samples (˜0.3 mL) were collected from a femoral artery at 0.17 (IV only), 0.25, 0.5, 0.75, 1, 2, 4, 6, 8, and 24 h post dose, and centrifuged at 4° C. (1500-2000×g) to obtain plasma. Samples were stored at −20° C. until analysis by LC/MS/MS.
as §4

[8] = system: EAE, a model of multiple sclerosis; format: in vivo
[9] = target: CCR2 (Homo sapiens, UniProt P41597); assay: In vivo receptor occupancy in blood of hCCR2 KI mice, 48-hour TG peritonitis model (Gaddum equation); details: for Concentration of Mouse MCP-1 in plasma / Concentration of free Example 1 in plasma: 48-hour TG peritonitis; for % free CCR2 / % mouse MCP-1 bound CCR2 / % of Example 1-bound CCR2: Gaddum equation
[10] = Intradermal (ID) MCP-1 challenge model in Cynomolgus monkey; format: in vivo; parameters: PMN score / Eos score / Total cell score: scale not given here; details: both sexes, cynomolgus monkey, plasma, read-out: Free plasma conc
Procedure: (§1) Intradermal injection of MCP-1 results in the infiltration of mononuclear cells to the injection site. This model was initially developed to assess the inhibitory effect of CCR2 antagonists on the infiltration of mononuclear cells to the skin tissue injected with human MCP-1.
(§2) Immediately after dosing on Day 3, all animals received at least 2 intradermal injections of 10 μg (50 μL/injection ) of human MCP-1 (R & D Systems) and at least 2 intradermal injections of its DPBS control (50 μl/injection) at separate sites on the dorsal thorax. Dermal biopsies of all sites were obtained at approximately 18 hours following MCP-1 (or DPBS) challenge. Biopsies were processed for semi-quantitative histological evaluation. Representative sections of skin samples were examined by light microscopy, microscopic lesions and cellular infiltration were noted, and their incidences were tabulated.
(§3) For both studies, in addition to biopsy analysis, blood was collected and evaluated for complete blood counts and cell differentials. Also evaluated were plasma samples for compound concentrations, and serum samples for systemic inflammatory mediator levels.

[11] = system: infiltration of mononuclear cells to the skin tissue injected with human MCP-1; assay: as above; format: in vivo; parameters: PMN score / Eos score / Total cell score: scale not given here; details: for inhibition of mononuclear cell infiltration: second study, naive monkeys
Procedure: as §1, §2, §3

CCR2, sequence (P41597 whole entry): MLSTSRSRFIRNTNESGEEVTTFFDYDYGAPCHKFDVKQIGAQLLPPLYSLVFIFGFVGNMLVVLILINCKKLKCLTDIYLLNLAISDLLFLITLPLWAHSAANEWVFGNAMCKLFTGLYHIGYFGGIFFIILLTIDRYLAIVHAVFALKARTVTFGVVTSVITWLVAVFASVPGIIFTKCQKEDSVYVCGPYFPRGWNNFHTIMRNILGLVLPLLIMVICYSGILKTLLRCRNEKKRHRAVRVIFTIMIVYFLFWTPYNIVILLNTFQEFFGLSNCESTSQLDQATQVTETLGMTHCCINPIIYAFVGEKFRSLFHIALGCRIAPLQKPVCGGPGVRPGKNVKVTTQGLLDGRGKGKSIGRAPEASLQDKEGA
T1 sequence (Q12809 whole entry): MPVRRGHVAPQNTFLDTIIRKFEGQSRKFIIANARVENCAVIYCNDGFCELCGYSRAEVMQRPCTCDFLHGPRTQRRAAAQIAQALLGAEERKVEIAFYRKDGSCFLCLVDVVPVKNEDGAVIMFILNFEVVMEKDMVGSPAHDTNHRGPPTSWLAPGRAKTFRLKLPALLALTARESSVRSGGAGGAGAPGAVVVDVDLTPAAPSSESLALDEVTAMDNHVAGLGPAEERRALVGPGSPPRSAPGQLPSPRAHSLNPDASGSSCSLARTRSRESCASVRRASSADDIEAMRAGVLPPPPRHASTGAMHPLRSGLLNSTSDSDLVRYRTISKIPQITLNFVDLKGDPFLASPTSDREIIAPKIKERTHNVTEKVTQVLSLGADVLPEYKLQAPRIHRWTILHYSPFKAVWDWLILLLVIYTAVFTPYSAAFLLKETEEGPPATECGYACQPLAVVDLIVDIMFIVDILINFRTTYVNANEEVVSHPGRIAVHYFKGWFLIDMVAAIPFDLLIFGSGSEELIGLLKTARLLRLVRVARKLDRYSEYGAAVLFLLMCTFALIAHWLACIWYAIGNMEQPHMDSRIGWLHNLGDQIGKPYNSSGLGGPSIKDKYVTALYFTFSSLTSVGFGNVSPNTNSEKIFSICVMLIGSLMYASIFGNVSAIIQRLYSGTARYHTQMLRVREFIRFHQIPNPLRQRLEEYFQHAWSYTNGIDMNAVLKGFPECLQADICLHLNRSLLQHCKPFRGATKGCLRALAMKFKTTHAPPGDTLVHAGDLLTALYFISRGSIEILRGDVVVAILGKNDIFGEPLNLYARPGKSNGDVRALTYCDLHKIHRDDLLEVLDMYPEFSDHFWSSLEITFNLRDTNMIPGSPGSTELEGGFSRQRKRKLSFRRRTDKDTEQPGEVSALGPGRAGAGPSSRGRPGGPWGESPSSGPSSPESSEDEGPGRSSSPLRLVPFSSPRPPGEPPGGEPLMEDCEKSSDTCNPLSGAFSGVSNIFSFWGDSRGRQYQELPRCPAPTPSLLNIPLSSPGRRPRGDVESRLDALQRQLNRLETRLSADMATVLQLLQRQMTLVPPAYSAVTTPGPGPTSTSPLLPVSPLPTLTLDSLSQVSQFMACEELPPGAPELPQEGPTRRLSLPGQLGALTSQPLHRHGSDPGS
human cardiac sodium channel SCN5A, sequence (Q14524 whole entry): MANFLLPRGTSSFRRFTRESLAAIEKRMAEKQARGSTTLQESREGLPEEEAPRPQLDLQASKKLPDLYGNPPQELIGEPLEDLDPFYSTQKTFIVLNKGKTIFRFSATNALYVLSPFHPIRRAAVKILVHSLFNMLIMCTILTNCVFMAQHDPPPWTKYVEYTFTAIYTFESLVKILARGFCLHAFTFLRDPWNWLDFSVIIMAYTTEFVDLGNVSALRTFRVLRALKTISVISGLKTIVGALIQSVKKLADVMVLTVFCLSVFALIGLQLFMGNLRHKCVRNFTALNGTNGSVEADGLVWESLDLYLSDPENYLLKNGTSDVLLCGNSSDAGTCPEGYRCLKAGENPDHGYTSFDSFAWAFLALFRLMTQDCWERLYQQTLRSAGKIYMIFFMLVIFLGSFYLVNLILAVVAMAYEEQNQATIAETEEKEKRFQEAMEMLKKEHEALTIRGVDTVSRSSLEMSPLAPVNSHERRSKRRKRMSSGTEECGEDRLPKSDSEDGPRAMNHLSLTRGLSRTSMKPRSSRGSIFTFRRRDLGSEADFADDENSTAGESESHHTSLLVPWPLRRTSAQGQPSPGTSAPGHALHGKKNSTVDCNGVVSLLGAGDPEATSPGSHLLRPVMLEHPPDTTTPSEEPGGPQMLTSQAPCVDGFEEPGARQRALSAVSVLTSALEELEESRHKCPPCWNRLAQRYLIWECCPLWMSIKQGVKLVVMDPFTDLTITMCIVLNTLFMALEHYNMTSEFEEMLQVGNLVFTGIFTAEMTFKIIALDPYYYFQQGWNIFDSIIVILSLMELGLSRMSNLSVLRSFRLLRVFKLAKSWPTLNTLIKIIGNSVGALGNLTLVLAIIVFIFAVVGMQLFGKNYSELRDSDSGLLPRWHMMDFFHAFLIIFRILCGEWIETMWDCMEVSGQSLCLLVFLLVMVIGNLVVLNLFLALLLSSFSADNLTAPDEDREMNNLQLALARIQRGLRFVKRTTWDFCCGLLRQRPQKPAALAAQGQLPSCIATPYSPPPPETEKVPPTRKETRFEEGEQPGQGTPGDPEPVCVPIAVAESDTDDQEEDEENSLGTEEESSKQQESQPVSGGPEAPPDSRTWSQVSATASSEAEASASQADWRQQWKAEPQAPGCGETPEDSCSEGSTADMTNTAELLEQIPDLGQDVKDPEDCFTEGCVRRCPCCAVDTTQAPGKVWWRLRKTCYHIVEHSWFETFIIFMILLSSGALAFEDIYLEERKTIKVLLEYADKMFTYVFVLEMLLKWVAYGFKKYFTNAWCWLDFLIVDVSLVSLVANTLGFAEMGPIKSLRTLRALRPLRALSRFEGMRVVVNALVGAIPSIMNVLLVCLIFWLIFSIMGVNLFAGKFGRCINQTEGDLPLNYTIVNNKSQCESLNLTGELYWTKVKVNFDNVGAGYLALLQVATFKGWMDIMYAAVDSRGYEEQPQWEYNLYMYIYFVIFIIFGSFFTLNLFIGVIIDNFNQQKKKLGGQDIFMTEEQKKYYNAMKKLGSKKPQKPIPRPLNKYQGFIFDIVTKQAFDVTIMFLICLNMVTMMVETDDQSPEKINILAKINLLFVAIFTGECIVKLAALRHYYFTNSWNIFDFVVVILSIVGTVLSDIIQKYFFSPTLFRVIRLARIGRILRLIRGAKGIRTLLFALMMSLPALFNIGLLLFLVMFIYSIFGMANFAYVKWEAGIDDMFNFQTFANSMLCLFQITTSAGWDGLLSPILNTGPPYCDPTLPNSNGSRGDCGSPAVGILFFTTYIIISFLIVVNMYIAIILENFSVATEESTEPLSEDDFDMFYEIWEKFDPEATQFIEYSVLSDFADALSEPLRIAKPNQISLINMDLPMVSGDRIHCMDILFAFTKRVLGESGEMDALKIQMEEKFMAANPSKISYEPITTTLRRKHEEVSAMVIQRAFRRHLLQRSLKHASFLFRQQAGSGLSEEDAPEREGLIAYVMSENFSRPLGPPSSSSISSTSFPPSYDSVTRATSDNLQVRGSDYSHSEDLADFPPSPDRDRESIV

Work on `CC(=O)N[C@@H]1C[C@H](N(C)C(C)C)CC[C@@H]1N1CC[C@H](Nc2ncnc3ccc(C(F)(F)F)cc23)C1=O` [Example 1, N-((1R,2S,5R)-5-(isopropyl(methyl)amino)-2-((S)-2-oxo-3-(6-(trifluoromethyl)quinazolin-4-ylamino)pyrrolidin-1-yl)cyclohexyl)acetamide] yielded an IC50 [1] greater than 80000 nM, an inhibition at 10000 nM [2] of 33% and an inhibition at 30000 nM [2] of 61%. For the same compound, the PAMPA permeability [3] was 443 ± 114 (8) nm/sec, the IC50 [4] was 5.5 ± 10 nM and the AUC ([5]; male, Sprague-Dawley, plasma, po, 10 mg/kg) was 3.79 µM·h. The Cl ([5]; IV, dose IV/PO mg/kg: 2k 2.5/25, 8a 6/72, 9c 4/43, Example 1 2/10) was 43 mL/min/kg, the F % ([5]; dose IV/PO mg/kg: 2k 2.5/25, 8a 6/72, 9c 4/43, Example 1 2/10) was 51% and the inhibition at 10000 nM ([6]; HEK-293 cells expressing human cardiac sodium channel SCN5A, 10,000 nM) was 17%. The inhibition at 30000 nM ([6]; HEK-293 cells expressing human cardiac sodium channel SCN5A, 30,000 nM) was 19%, the bioavailability ([7]; in vivo, po, 1.3 mg/kg) was 47% and the clearance ([7]; plasma, iv, 1 mg/kg) was 23 mL/min/kg. For the same compound, the AUC ([7]; plasma, po, 1.3 mg/kg) was 0.836 µM·h, the clinical score ([8]; 55 mg/kg BID oral from day 1, two of the three studies, p<0.05) was “significantly reduced the clinical score” and the “total inflammatory cellular infiltrate, histological evaluation of the spinal cord” value ([8]; Day 22, versus vehicle) was “did not demonstrate a significant difference”. The “Concentration of Mouse MCP-1 in plasma” value ([9]; 1 mg/kg oral BID) was 0.027 nM, the “Concentration of free Example 1 in plasma” value ([9]; 1 mg/kg oral BID) was 1 nM and the “% free CCR2” value ([9]; 1 mg/kg) was 53.7%. For the same compound, the “% mouse MCP-1 bound CCR2” value ([9]; 1 mg/kg) was 1.6%, the “% of Example 1-bound CCR2” value ([9]; 1 mg/kg) was 44.7% and the “Concentration of Mouse MCP-1 in plasma” value ([9]; 5 mg/kg oral BID) was 0.043 nM. For the same compound, the “Concentration of free Example 1 in plasma” value ([9]; 5 mg/kg oral BID) was 4 nM, the “% free CCR2” value ([9]; 5 mg/kg) was 22.8% and the “% mouse MCP-1 bound CCR2” value ([9]; 5 mg/kg) was 1.1%. For the same compound, the “% of Example 1-bound CCR2” value ([9]; 5 mg/kg) was 76.1%, the “Concentration of Mouse MCP-1 in plasma” value ([9]; 25 mg/kg oral BID) was 0.041 nM and the “Concentration of free Example 1 in plasma” value ([9]; 25 mg/kg oral BID) was 24 nM. The “% free CCR2” value ([9]; 25 mg/kg) was 4.8%, the “% mouse MCP-1 bound CCR2” value ([9]; 25 mg/kg) was 0.2% and the “% of Example 1-bound CCR2” value ([9]; 25 mg/kg) was 95.0%. It also gave a concentration at 18 h ([10]; 6.5 mg/kg once daily for 3 days, Study 1, 6.5 mg/kg oral once daily 3 days, 18 hours) of 53 nM, a concentration at 18 h ([10]; 13 mg/kg once daily for 3 days, Study 1, 13 mg/kg oral once daily 3 days, 18 hours) of 101 nM and a concentration at 18 h ([10]; 26 mg/kg once daily for 3 days, Study 1, 26 mg/kg oral once daily 3 days, 18 hours) of 238 nM. For the same compound, the concentration at 18 h ([10]; Study 2 (naive monkeys), 10 mg/kg oral once daily 3 days) was 34 nM, the concentration at 18 h ([10]; Study 2 (naive monkeys), 30 mg/kg oral once daily 3 days) was 83 nM and the Eos score ([11]; Study 1, 6.5 mg/kg) was 1.3 ± 0.8. The “MNC score (inh %)” value ([11]; Study 1, 6.5 mg/kg) was “(19%)”, the PMN score ([11]; Study 1, 6.5 mg/kg) was 0.8 ± 0.3 and the Total cell score ([11]; Study 1, 6.5 mg/kg) was 4.3 ± 1.6. The MNC score ([11]; Study 1, 6.5 mg/kg, scale of 0 to 4) was 2.2 ± 0.6, the Eos score ([11]; Study 1, 13 mg/kg) was 1.2 ± 0.6 and the “MNC score (inh %)” value ([11]; Study 1, 13 mg/kg) was “(19%)”. For the same compound, the PMN score ([11]; Study 1, 13 mg/kg) was 0.7 ± 0.3, the Total cell score ([11]; Study 1, 13 mg/kg) was 4.0 ± 0.5 and the MNC score ([11]; Study 1, 13 mg/kg, scale of 0 to 4) was 2.2 ± 0.3. The Eos score ([11]; Study 1, 26 mg/kg) was 0.5 ± 0^, the “MNC score (inh %)” value ([11]; Study 1, 26 mg/kg) was “(56%)” and the PMN score ([11]; Study 1, 26 mg/kg) was 0.2 ± 0.3. The Total cell score ([11]; Study 1, 26 mg/kg) was 1.8 ± 0.8, the MNC score ([11]; Study 1, 26 mg/kg, scale of 0 to 4) was 1.2 ± 0.6 and the Eos score ([11]; Study 2, 10 mg/kg) was 0.3 ± 0.1. For the same compound, the MNC score ([11]; Study 2, 10 mg/kg) was 0.2 ± 0.2, the “MNC score (inh %)” value ([11]; Study 2, 10 mg/kg) was “(87%)” and the PMN score ([11]; Study 2, 10 mg/kg) was 0. It also gave a Total cell score ([11]; Study 2, 10 mg/kg) of 0.5 ± 0.2, an Eos score ([11]; Study 2, 30 mg/kg) of 0.6 ± 0.7 and an MNC score ([11]; Study 2, 30 mg/kg) of 0.1 ± 0.3. For the same compound, the “MNC score (inh %)” value ([11]; Study 2, 30 mg/kg) was “(91%)”, the PMN score ([11]; Study 2, 30 mg/kg) was 0.1 ± 0.3 and the Total cell score ([11]; Study 2, 30 mg/kg) was 0.8 ± 0.8. The “infiltration of other cells types such as eosinophils and neutrophils” value ([11]; first study) was “inhibited the infiltration”, the “inhibition of MCP-1 induced infiltration of mononuclear cells to the skin” value ([11]; first study, 26 mg/kg oral once daily for three days, biopsy 18 hours after MCP-1) was 56% and the “inhibition of MCP-1 induced infiltration of mononuclear cells to the skin” value ([11]; first study, 13 and 6.5 mg/kg) was “lower levels of inhibition”. The “inhibition of mononuclear cell infiltration” value ([11]; 10 mg/kg) was 87% and the “inhibition of mononuclear cell infiltration” value ([11]; 30 mg/kg) was 91%.

— patent US7671062B2, “Modulators of chemokine receptor activity, crystalline forms and process” (Bristol-Myers Squibb Company, priority 2006, dated 2010)
